Data on 27 molecules can be found in ChEMBL document CHEMBL1155894, “Novel analogues of istaroxime, a potent inhibitor of Na+,K+-ATPase: synthesis and structure-activity relationship” (J Med Chem, 2008).

Series [1] is described as follows: Inhibition of dog kidney Na+,K+-ATPase by [32P]ATP hydrolysis method. More on the design: species or system Canis lupus familiaris.
Series [2] deals with Cavia porcellus. The series can be described thus: […] effect in anesthetized guinea pig assessed as drug level inducing maximun increase in dP/dtmax response relative to control. It is filed as functional.
Series [3] deals with Cavia porcellus. Kind of series: […] effect in anesthetized guinea pig assessed as increase in dP/dtmax response relative to control. It is filed as functional.
In series [4] the test system is Cavia porcellus. The series can be described thus: […] effect in anesthetized guinea pig assessed as drug level inducing increase in dP/dtmax response. The class given is functional.
The species named for series [5] is Cavia porcellus. The series can be described thus: Ratio of toxic lethal dose to ED80 for inotropic activity in guinea pig. It is filed as functional.
The species named for series [6] is Cavia porcellus. Kind of series: Toxicity in guinea pig assessed as induction of death. It is filed as organism-based. To be noted: in vivo.

As for `C[C@]12CCC(=NO[C@@H]3CCNC3)C[C@@H]1C(=O)C[C@@H]1[C@@H]2CC[C@]2(C)C(=O)CC[C@@H]12`, the IC50 (as a rule, the point on the concentration scale where inhibition reaches its midpoint) in series [1] worked out at 26 nM. In series [2], the Activity stood at 8.09 µmol/kg. For the same molecule, the Emax (commonly the maximal effect, on the per cent scale that the assay sets) in series [3] amounted to 223%. Also, the ED80 in series [4] is 2.01 µmol/kg. Also, the Ratio in series [5] is on record as 12.

With `CC12CCC3C(CC(=O)C4CC(=NOCCN)CCC43C)C1CCC2=O` (configuration not stated), the midpoint of inhibition in series [1], the IC50, lay at 110 nM. For the same molecule, the Activity in series [2] is 5.74 µmol/kg. The Emax in series [3] was 182%. For the same molecule, in series [4], the ED80 came to 1.82 µmol/kg. The Ratio in series [5] is given as 25.6.

Turning to `CCCON=C1CC[C@@]2(C)[C@H](C1)C(=O)C[C@@H]1[C@@H]2CC[C@]2(C)C(=O)CC[C@@H]12`, in series [1], the IC50 came out at 56 nM. Also, the Activity was 6.79 µmol/kg in series [2] and “Toxic” in series [6]. Besides, the Emax in series [3] amounted to 260%. Further, the ED80 in series [4] worked out at 1.03 µmol/kg. Moreover, the Ratio in series [5] stood at 20.8.

Take `C[C@]12CC/C(=N/OC3CNC3)C[C@@H]1C(=O)C[C@@H]1[C@@H]2CC[C@]2(C)C(=O)CC[C@@H]12`: the IC50 in series [1] came out at 100 nM.

With `C[C@H](N)CO/N=C1/CC[C@@]2(C)[C@H](C1)C(=O)C[C@@H]1[C@@H]2CC[C@]2(C)C(=O)CC[C@@H]12`, it took 370 nM to reach half-maximal inhibition in series [1] (IC50).

Regarding `C[C@@H](N)CO/N=C1/CC[C@@]2(C)[C@H](C1)C(=O)C[C@@H]1[C@@H]2CC[C@]2(C)C(=O)CC[C@@H]12`, inhibition in series [1] was half-maximal at 380 nM (IC50).

Regarding `CNCCO/N=C1/CC[C@@]2(C)[C@H](C1)C(=O)C[C@@H]1[C@@H]2CC[C@]2(C)C(=O)CC[C@@H]12`, it took 690 nM to reach half-maximal inhibition in series [1] (IC50).

On to `CNCCCO/N=C1/CC[C@@]2(C)[C@H](C1)C(=O)C[C@@H]1[C@@H]2CC[C@]2(C)C(=O)CC[C@@H]12`, for which, in series [1], the IC50 came to 230 nM.

Take `CN1CC[C@H](O/N=C2/CC[C@@]3(C)[C@H](C2)C(=O)C[C@@H]2[C@@H]3CC[C@]3(C)C(=O)CC[C@@H]23)C1`: in series [1], the IC50 worked out at 40500 nM.

The molecule `CN1CC[C@@H](O/N=C2/CC[C@@]3(C)[C@H](C2)C(=O)C[C@@H]2[C@@H]3CC[C@]3(C)C(=O)CC[C@@H]23)C1` gave an IC50 in series [1] of 1300 nM.

Turning to `C[C@]12CC/C(=N/OCCN)C[C@@H]1C(=O)C[C@@H]1[C@@H]2CC[C@]2(C)C(=O)CC[C@@H]12`, the IC50 in series [1] was determined as 630 nM. Further, the Activity in series [2] was found to be 12.1 µmol/kg. The Emax in series [3] worked out at 235%. In addition, the ED80 in series [4] stood at 3.36 µmol/kg. In addition, the Ratio in series [5] stood at 22.5.

With `CC(C)(N)CO/N=C1/CC[C@@]2(C)[C@H](C1)C(=O)C[C@@H]1[C@@H]2CC[C@]2(C)C(=O)CC[C@@H]12`, in series [1], the IC50 was determined as 28500 nM.

On to `C[C@]12CC/C(=N/OCCCCN)C[C@@H]1C(=O)C[C@@H]1[C@@H]2CC[C@]2(C)C(=O)CC[C@@H]12`, for which the IC50 in series [1] is 1800 nM.

On to `C[C@]12CC/C(=N/O[C@H]3CCNC3)C[C@@H]1C(=O)C[C@@H]1[C@@H]2CC[C@]2(C)C(=O)CC[C@@H]12`, for which the IC50 in series [1] is 240 nM.

`C[C@]12CC/C(=N/O[C@@H]3CCNC3)C[C@@H]1C(=O)C[C@@H]1[C@@H]2CC[C@]2(C)C(=O)CC[C@@H]12` registered an IC50 in series [1] of 250 nM. Further, the Activity in series [2] was 43.5 µmol/kg; in series [6] it was “Non-toxic”. Further, the Emax in series [3] was 114%. In addition, the ED80 in series [4] turned out to be 27.7 µmol/kg. Moreover, the Ratio in series [5] is recorded as over 3.6.

In turn, `CC(C)(CN)O/N=C1/CC[C@@]2(C)[C@H](C1)C(=O)C[C@@H]1[C@@H]2CC[C@]2(C)C(=O)CC[C@@H]12` gave an IC50 in series [1] of 21 nM.

In series [1], `C[C@]12CC/C(=N\OC3CCNCC3)C[C@@H]1C(=O)C[C@@H]1[C@@H]2CC[C@]2(C)C(=O)CC[C@@H]12` registered an IC50 of 1100 nM.

On to `C[C@]12CC/C(=N/O[C@@H]3CCNC3)C[C@@H]1[C@@H](O)C[C@@H]1[C@@H]2CC[C@]2(C)C(=O)CC[C@@H]12`, for which the IC50 in series [1] amounted to 220 nM. Moreover, the Activity in series [2] was found to be 9.62 µmol/kg. Also, in series [3], the Emax amounted to 216%. Besides, the ED80 in series [4] was 1.64 µmol/kg. For the same molecule, the Ratio in series [5] came out at 21.

Consider `C[C@]12CC/C(=N/O[C@@H]3CCNC3)C[C@@H]1[C@H](O)C[C@@H]1[C@@H]2CC[C@]2(C)C(=O)CC[C@@H]12`, for which the IC50 in series [1] amounted to 850 nM. The Activity in series [2] is 44.8 µmol/kg; in series [6], “Toxic”. The Emax in series [3] came out at 256%. Also, in series [4], the ED80 worked out at 3.92 µmol/kg. For the same molecule, the Ratio in series [5] is 49.1.

In the case of `CNCCCO/N=C1/CC[C@@]2(C)[C@H](C1)C(O)C[C@@H]1[C@@H]2CC[C@]2(C)C(=O)CC[C@@H]12` (some centres not stated), the IC50 in series [1] stood at 920 nM. Further, the Activity is 8.95 µmol/kg in series [2] and “Toxic” in series [6]. Further, the Emax in series [3] came out at 77%. In addition, the Ratio in series [5] was under 17.

`C[C@]12CC/C(=N/O[C@H]3CCNC3)C[C@@H]1[C@@H](O)C[C@@H]1[C@@H]2CC[C@]2(C)C(=O)CC[C@@H]12` returned an IC50 in series [1] of 910 nM.

For `C[C@]12CC/C(=N\O[C@@H]3CCNC3)C[C@@H]1C(=O)C[C@@H]1[C@@H]2CC[C@]2(C)C(=O)CC[C@@H]12`, the IC50 in series [1] stood at 16 nM. Further, the Activity in series [2] is 2.65 µmol/kg; in series [6], “Toxic”. For the same molecule, the Emax in series [3] is 186%. For the same molecule, the ED80 in series [4] stood at 0.75 µmol/kg. Besides, the Ratio in series [5] is on record as 8.

For the molecule `C[C@]12CC/C(=N/OCCNC(=N)N)C[C@@H]1C(=O)C[C@@H]1[C@@H]2CC[C@]2(C)C(=O)CC[C@@H]12`, in series [1], the IC50 was 12000 nM.

In series [1], `C[C@]12CC/C(=N\OC[C@@H]3CCCN3)C[C@@H]1C(=O)C[C@@H]1[C@@H]2CC[C@]2(C)C(=O)CC[C@@H]12` yielded an IC50 of 11000 nM.

Regarding `C[C@]12CC/C(=N\OC[C@H]3CCCN3)C[C@@H]1C(=O)C[C@@H]1[C@@H]2CC[C@]2(C)C(=O)CC[C@@H]12`, the IC50 in series [1] was determined as 23000 nM.

Molecule `C[C@]12CC/C(=N\OC3CCCNC3)C[C@@H]1C(=O)C[C@@H]1[C@@H]2CC[C@]2(C)C(=O)CC[C@@H]12` (mixture of isomers) yielded an IC50 in series [1] of 33000 nM.

`C[C@H]1O[C@@H](O[C@H]2[C@@H](O)C[C@H](O[C@H]3[C@@H](O)C[C@H](O[C@H]4CC[C@@]5(C)[C@H](CC[C@@H]6[C@@H]5C[C@@H](O)[C@]5(C)[C@@H](C7=CC(=O)OC7)CC[C@]65O)C4)O[C@@H]3C)O[C@@H]2C)C[C@H](O)[C@@H]1O` [DIGOXIN]: the IC50 in series [1] was 220 nM. In addition, the figures for the Activity in series [2] and in series [6] were 0.97 µmol/kg and “Toxic”, respectively. Besides, the maximal response (Emax) in series [3] was found to be 127%. Besides, in series [4], the ED80 was 0.41 µmol/kg. In addition, the Ratio in series [5] worked out at 3.2.
